The text below walks through data of PubChem BioAssay (NCI).

Among the test systems are DMS 114 small cell lung; LXFL 529 NSCLC; XF 498 CNS; SNB-78 CNS; M19-MEL melanoma; DLD-1 colon; MDA-N; HOP-18 NSCLC; RXF-631 renal.
Assay in all cases: NCI anticancer screen, dose series, 48 h

Each structure is given as a SMILES string. “And” between values parts separate entries of the source, which are not always exact repeats. Equal values may be shown once.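 A five-concentration, 48-hour dose response in 96-well plates underlies each endpoint, interpolated linearly between surrounding concentrations. At the GI50, growth is halved. TGI marks complete inhibition of growth.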

As for `COc1ccc(/C=N/N=C(\N)NO)cc1OC`, the TGI in the assay with DMS 114 small cell lung is 92.5 µM; in the assay with LXFL 529 NSCLC, greater than 100 µM; in the assay with XF 498 CNS it was greater than 100 µM; in the assay on SNB-78 CNS it was greater than 100 µM; in the assay on M19-MEL melanoma, greater than 100 µM; with DLD-1 colon, greater than 100 µM.
On to `[Cl][Bi]([O]c1ccccn1)[O]c1ccccn1`, for which the GI50 was 57 µM with DMS 114 small cell lung, greater than 100 µM in the assay on XF 498 CNS and greater than 100 µM in the assay on DLD-1 colon. For the same compound, the TGI in the assay with DMS 114 small cell lung, in the assay with XF 498 CNS and with DLD-1 colon was greater than 100 µM each time.
On to `CC(=O)O[C@H]1C(=O)[C@@]2(C)C(C(OC(=O)c3ccccc3)[C@]3(O)CC(OC(=O)[C@H](OC(=O)CCC(=O)O)C(NC(=O)c4ccccc4)c4ccccc4)C(C)=C1C3(C)C)C1(OC(C)=O)COC1C[C@@H]2OC(=O)CCC(=O)O` (some centres undefined), for which, in the assay with MDA-N, the GI50 was 0.253 µM and the TGI amounted to 1.21 µM.
For the compound `O=C1C(Cl)=C(Cl)C(=O)N1C1C2CC3CC(C2)CC1C3` (centres undefined), the TGI in the assay with HOP-18 NSCLC, in the assay on DMS 114 small cell lung, in the assay with LXFL 529 NSCLC, in the assay on XF 498 CNS, in the assay on SNB-78 CNS and with M19-MEL melanoma was greater than 100 µM each time. The compound also returned a TGI in the assay on DLD-1 colon greater than 100 µM.
Regarding `O=C1c2cccc3cc([N+](=O)[O-])cc(c23)C(=O)N1CCNCCNCCNCCN1C(=O)c2cccc3cc([N+](=O)[O-])cc(c23)C1=O`, the TGI in the assay on DMS 114 small cell lung is 0.41 µM and 0.264 µM; in the assay on LXFL 529 NSCLC, 0.496 µM; in the assay with SNB-78 CNS, 0.399 µM and 0.686 µM; with DLD-1 colon, 0.272 µM. Further, the GI50 in the assay on SNB-78 CNS is 0.0474 µM.
For `COC(=O)C1CC(C(=O)OC)c2nc3cc(C)ccc3nc21` (centres undefined), the TGI in the assay with HOP-18 NSCLC, in the assay with DMS 114 small cell lung, in the assay on LXFL 529 NSCLC, in the assay on XF 498 CNS, in the assay with SNB-78 CNS and in the assay on M19-MEL melanoma was greater than 100 µM each time. The TGI with RXF-631 renal and with DLD-1 colon was greater than 100 µM in each case.
Consider `COc1cc(Nc2nc3cc(N)cc(N)c3nc2-c2ccccc2)cc(OC)c1`, for which, in the assay with MDA-N, the GI50 was 13 µM and the TGI came out at 35.9 µM.
Take `Cc1ccc(NC(=O)CC2C(=O)Nc3ccccc3S2=O)cc1C` (centres undefined): the TGI with DMS 114 small cell lung, in the assay on LXFL 529 NSCLC, in the assay on XF 498 CNS, in the assay with SNB-78 CNS, with M19-MEL melanoma and with DLD-1 colon was greater than 100 µM throughout.
Consider `CC(CN(CP(=O)([O-])[O-])CP(=O)([O-])[O-])N(CP(=O)([O-])[O-])CP(=O)([O-])[O-].N.N.[Pt+2]` (centres undefined), for which the GI50 was 26.1 µM in the assay on HOP-18 NSCLC, greater than 100 µM with LXFL 529 NSCLC, greater than 100 µM with SNB-78 CNS and greater than 100 µM with DLD-1 colon. In addition, the TGI in the assay with HOP-18 NSCLC, in the assay with LXFL 529 NSCLC, in the assay on SNB-78 CNS and in the assay with DLD-1 colon was greater than 100 µM each time.
In turn, `O=c1c2ccccc2c2ccccc2c(=O)n1-c1cc2c3ccccc3ccc2c2ccccc12` gave a TGI in the assay on MDA-N greater than 100 µM.
As to `Clc1ccc(Cl)c2[s+]snc12`, the TGI in the assay with HOP-18 NSCLC was greater than 100 µM; in the assay on DMS 114 small cell lung, greater than 66.8 µM; in the assay with LXFL 529 NSCLC it was greater than 100 µM; with XF 498 CNS it was greater than 100 µM; in the assay on SNB-78 CNS, greater than 100 µM; with M19-MEL melanoma, greater than 100 µM. Besides, the TGI with RXF-631 renal and in the assay with DLD-1 colon was greater than 100 µM throughout.
Turning to `O=S(=O)([O-])c1cccc2cccc(N=Cc3ccccc3[O-])c12.O=S(=O)([O-])c1cccc2cccc(N=Cc3ccccc3[O-])c12.[O]=[U]=[O]`, the GI50 was greater than 100 µM in the assay with HOP-18 NSCLC; 54 µM in the assay on DMS 114 small cell lung; 54.5 µM in the assay with LXFL 529 NSCLC; greater than 100 µM in the assay on XF 498 CNS; greater than 100 µM in the assay with SNB-78 CNS; greater than 100 µM in the assay on M19-MEL melanoma. For the same compound, the GI50 in the assay on DLD-1 colon was greater than 100 µM. The TGI with HOP-18 NSCLC, with DMS 114 small cell lung, in the assay with LXFL 529 NSCLC, in the assay on XF 498 CNS, in the assay on SNB-78 CNS and in the assay on M19-MEL melanoma was greater than 100 µM in each case. The compound also showed a TGI with DLD-1 colon greater than 100 µM.
Take `CC(=O)Nc1ccc(/C=C/[N+](=O)[O-])cc1`: the TGI with MDA-N stood at 6.59 µM.
In the case of `CC1OC(n2ncc(=O)[nH]c2=O)C=CC1=O` (centres undefined), the TGI is greater than 100 µM with LXFL 529 NSCLC; greater than 100 µM with XF 498 CNS; 86.8 µM and > 100 µM in the assay on SNB-78 CNS; greater than 100 µM in the assay with M19-MEL melanoma; 32.5 µM and 43.5 µM in the assay with RXF-631 renal; greater than 100 µM with DLD-1 colon. The GI50 in the assay on XF 498 CNS was 54.8 µM and 22.9 µM; in the assay with DLD-1 colon, 77.2 µM and 31.2 µM.
Consider `Clc1ccc(-n2nnc(C3=NCCN3)c2-c2ccccc2)cc1`, for which the TGI in the assay with HOP-18 NSCLC, in the assay with DMS 114 small cell lung, in the assay on LXFL 529 NSCLC, in the assay on XF 498 CNS, in the assay on SNB-78 CNS and in the assay with M19-MEL melanoma was greater than 100 µM each time. In the assay on DLD-1 colon, the TGI was greater than 100 µM.
On to `COc1ccc2[nH]c(-c3ccccn3)cc(=O)c2c1`, for which the TGI in the assay with HOP-18 NSCLC was greater than 100 µM; with DMS 114 small cell lung it was 71.4 µM; with LXFL 529 NSCLC it was greater than 100 µM; with SNB-78 CNS, greater than 100 µM; in the assay on M19-MEL melanoma it was greater than 100 µM; in the assay on RXF-631 renal, greater than 100 µM. The same compound yielded a TGI in the assay with DLD-1 colon greater than 100 µM. The GI50 in the assay on DMS 114 small cell lung was 22.6 µM.
Regarding `O=C(O)CNc1c2ccccc2nc2ccccc12`, the TGI with DMS 114 small cell lung, in the assay with LXFL 529 NSCLC, in the assay on XF 498 CNS, with RXF-631 renal and with DLD-1 colon was greater than 100 µM throughout.
As for `O=C(O)c1cc2ccccc2c(O)c1O`, the TGI in the assay with MDA-N was 4.01 µM.
`COC(=O)C1=C(C)N(NC(N)=O)C2(N)N(NC(N)=O)C(C)=C(C(=O)OC)C12C(=O)OC` (centres undefined): the TGI with HOP-18 NSCLC, in the assay with DMS 114 small cell lung, with LXFL 529 NSCLC, with XF 498 CNS, in the assay on SNB-78 CNS and in the assay with M19-MEL melanoma was greater than 100 µM in each case. Moreover, the TGI in the assay on RXF-631 renal and in the assay on DLD-1 colon was greater than 100 µM throughout.
Regarding `CCCCCCCCCC(=O)CC(=O)c1ccc(O)cc1O`, the TGI in the assay with HOP-18 NSCLC was 81.9 µM; in the assay on LXFL 529 NSCLC, greater than 100 µM; in the assay on DLD-1 colon, greater than 100 µM.
